Assays:
MCF7 cells = assay: Drug loading vs toxicity at fixed [drug], MTT viability assay (Example 4); format: cell-based, human; details: Drug only, without carrier; 0.058 mM MTN; 72 hours
Description: FIG. 1. […] NAC-MTN or NAC-DOX were prepared at different weight:weight % of drug:nucleic acid and incubated in cells. For each sample and corresponding % loading, the total drug was held constant at 0.058 mM MTN or 0.1 mM DOX. After incubation in cells, cell viability was assayed via mitochondrial dehydrogenase activity against 3-[4,5-dimethylthiazol-2-yl]-2,5-diphenyl tetrazolium bromide (MTT) and reported as % toxicity relative to untreated cells.
Mitoxantrone (MTN, Sigma Aldrich) and Doxorubicin HCl (DOX) were diluted in HBSS to 1 mg/ml final. DNA, from degraded herring sperm DNA <40 bp (HSDNA, Sigma Aldrich), was prepared in water at 10 mg/ml. The drug was diluted in water or HBSS first, followed by addition of the DNA, in order to prevent precipitation. Precipitation of drug was especially a concern at 40% loading of MTN, which is the loading limit for HSDNA (degraded) and so the DNA is added slowly to the diluted MTN (the reverse addition leads to precipitation). All NAC-MTN formulation stocks were prepared at 0.15 mg/ml final MTN, and different concentration of DNA in order to give 15, 25, and 35.7% final drug loading w/w % of MTN/DNA in 0.5 ml final volume. All NAC-DOX formulations were prepared at 0.3 mg/ml final DOX, and either 5, 10, or 15% loaded drug weight/weight % of DOX/DNA in 0.5 ml final volume. […]

COS7 = assay: Toxicity of NAC-MTN vs CD-MTN and MTN, MTT (Example 9, EX042105); format: cell-based, green monkey
Description: FIG. 4. […] The relative toxicity of NAC-MTN was compared with MTN and CD-MTN in four cell lines, MCF7(breast cancer), COS7green monkey kidney (SV40 transformed), 3T3 (mouse fibroblast), and BHK21(hamster kidney). Cells were treated with identical amounts of MTN formulated as either NAC-MTN, MTN only, or poly-beta-cyclodextrin-sulfylbutylether(CD-MTN). After an incubation period, cell viability was assayed with MTT assay. The differences in toxicity between NAC-MTN and MTN or NAC-MTN and CD-MTN are shown as % difference. Greater percentage difference correlates to more reduction in relative NAC-MTN toxicity.
MCF7, COS7, 3T3, and BHK21 cells were plated out in duplicate rows of equivalent cell density in 100ul final volume. Initial cell densities were 2000 cells/well.
Preparing NAC-MTN, CD-MTN, and MTN only. Combined 180 ul of 0.05 mg/ml MTN with […] 0.1 mg/ml herring sperm genomic DNA (HSGDNA, Promega), 1500 ul of 2× DMEM media containing 20% FBS to give 3.0 ml final volume and 12% final drug loading in the dsDNA. For MTN only, 180 ul of MTN was combined with 1320 ul H2O and 1500 ul 2× DMEM. […]
Aspirated media in plate and replaced with 50 ul of 0.5 mg/ml MTT in 1× media, incubated 3 hours, aspirated, air dried 5 min and dissolved in 100 ul of isopropyl, read OD at A570. […]

For O=C1c2c(O)ccc(O)c2C(=O)c2c(NCCNCCO)ccc(NCCNCCO)c21 [MTN, mitoxantrone], the “% Tox” value (MCF7 cells) was 79%, the “% tox. relative to media only” value (COS7; 2 uM final MTN, MTT 48 hours after adding samples) was 56.65% and the toxic effect (COS7; after 24 hours, 2 uM MTN) was “no toxic effect”.

Source: patent US20070225213A1, “Nucleic acid carriers for delivery of therapeutic agents” (priority 2006, published 2007)
